Test results taken from PMC11207953, “Phytochemical Investigation of Polyphenols from the Aerial Parts of Tanacetum balsamita Used in Transylvanian Ethnobotany and Parallel Artificial Membrane Permeability Assay” (Plants, 2024).

How the values were obtained:
[1] = Parallel artificial membrane permeability assay for the gastrointestinal tract (PAMPA-GI), coupled with UHPLC-DAD; type: in vitro ADME; settings: constituent measured within T. balsamita 50% (v/v) ethanolic extract (TbE), donor pH 6.8, acceptor pH 7.4, 37 °C, Pe in cm/s, n = 9, read-out: logPe PAMPA-GI (n = 9) (converted)
Text: (§1) The ability of the compounds in T. balsamita extract (TbE and TbW) to cross biological membranes of the gastrointestinal (GI) tract and the blood–brain barrier (BBB) by passive diffusion was investigated using the PAMPA model. The coupling of this assay with UHPLC separation allowed the rapid simultaneous investigation of the membrane permeability of the compounds present in the extract (Figure 3). […] Due to the artificial nature of the membrane used in the assay, only passive transport mechanisms can occur, unlike in cell-based assays. This is particularly important in the case of plant extracts due to their complexity, as the evaluation of results obtained by different co-existing mechanisms (e.g., active transport, or metabolism) can be challenging. Furthermore, no significant differences in effective permeabilities are observed in the PAMPA, whether assessed with single compounds or mixtures. […]
(§2) After incubation, sandwich plates were separated, and the concentrations of each compound in the starting donor solution and in the acceptor and donor wells were determined in triplicate by chromatographic peak areas derived from the UHPLC-DAD method described above. UV spectra and chromatograms were recorded at 200–400 nm, and the chromatograms acquired at the UV absorption maxima of each compound were used for data evaluation. […]

[2] = Parallel artificial membrane permeability assay for the blood–brain barrier (PAMPA-BBB), coupled with UHPLC-DAD; type: in vitro ADME; settings: constituent measured within T. balsamita 50% (v/v) ethanolic extract (TbE), donor pH 7.4, acceptor pH 7.4, 37 °C, Pe in cm/s, n = 9, read-out: logPe PAMPA-BBB (n = 9) (converted)
Text: as §1, §2

[3] = design: method as in PMID 29182998; settings: isolated from Tanacetum parthenium; cited from earlier work

SMILES	Papp at 4 h [1]	Papp at 4 h [2]	permeability in the PAMPA-BBB model (in words) [3]
O=c1cc(-c2ccc(O)cc2)oc2cc(O)cc(O)c12 [Compound 86, apigenin]	17.8 ×10⁻⁶ cm/s	34.7 ×10⁻⁶ cm/s	good permeability
COc1c(O)cc2oc(-c3ccc(O)c(O)c3)c(OC)c(=O)c2c1O [axillarin]			good permeability
COc1ccc(-c2oc3cc(OC)c(OC)c(O)c3c(=O)c2OC)cc1O [casticin]			good permeability
COc1ccc(-c2cc(=O)c3c(O)c(OC)c(O)c(OC)c3o2)cc1 [nevadensin]			good permeability
COc1cc(-c2cc(=O)c3c(O)c(OC)c(O)c(OC)c3o2)ccc1O [sudachitin]			good permeability
